In patent US5532167A, “Substrate specificity of protein kinases” (Beth Israel Hospital, priority 1994, dated 1996):
Blank lines part the entries; values can stand above or below the compound they belong to. Where no end group is shown, it is not given here.

What was measured:
EGF receptor = target: T1, EGF receptor (Homo sapiens, UniProt P00533); assay: Kinetics of EGF receptor phosphorylating synthetic peptide; type: biochemical; conditions: peptide as substrate; 10 μM ATP, 10 mM MnCl2, pH 7.0
T1 construct: made in house
Source text: (§1) The degenerate peptide library constructed as described in Example 1, with either serine or tyrosine at the 7th position, was used as a substrate for several different protein kinases. Protein kinase A (bovine) was obtained commercially (Sigma). GST-cyclin B/p33^cdc2 (Atherton-Fessler et al. (1993) Mol. Cell. Biol. 13:1675-1685), GST-cyclinA/p33^CDK2 (Atherton-Fessler et al. (1993) Mol. Cell. Biol. 13:1675-1685), human EGF receptor, chicken pp60^v-src, polyoma virus middle T antigen/pp60^c-src (Piwnica-Worms et al. (1990) J. Virol. 64:61-68) and pp92^c-pfs/fes were expressed by baculoviruses. The baculovirus-expressed protein kinases were immobilized on protein A beads using precipitating antibodies or on glutathione-agarose bead for kinases obtained as GST fusion proteins to minimize the problem of separating the peptides from the enzyme or impurities in the enzyme. […]
(§2) The peptide sequences predicted to be optimal substrates for the cyclindependent serine/threonine kinases and for pp60^v-src tyrosine kinase were synthesized to determine whether they are indeed good substrates for these kinases. […] After 2 and a half minutes incubation, the supernatants were spotted on phosphocellulose paper (p81), washed four times with 75 mM phosphoric acid, and radioactivity counted on a scintillation counter. […] The Km and Vmax were calculated using the Kaleidagraph computer software.

cyclin A/p33^CDK2 = target: T2, cyclin A/p33^CDK2 (Homo sapiens, UniProt P24941); assay: Kinetics of cyclin A/p33CDK2 phosphorylating synthetic peptide; type: biochemical; conditions: peptide as substrate; 10 μM ATP, 10 mM MgCl2, pH 7.0
T2 construct: made in house
Source text: as §1, §2

PKA = PKA (Bos taurus, UniProt P00517); conditions: relative to Kemptide; cited from earlier work

Km (EGF receptor): 34 µM
Compound: CC[C@H](C)[C@H](NC(=O)[C@H](CCC(=O)O)NC(=O)[C@H](CCC(=O)O)NC(=O)[C@H](CCC(=O)O)NC(=O)[C@H](C)N)C(=O)N[C@@H](Cc1ccc(O)cc1)C(=O)NCC(=O)N[C@@H](CCC(=O)O)C(=O)N[C@@H](Cc1ccccc1)C(=O)N[C@@H](CCC(=O)O)C(=O)N[C@@H](C)C(=O)N[C@@H](CCCCN)C(=O)N[C@@H](CCCCN)C(=O)N[C@@H](CCCCN)C(=O)N[C@@H](CCCCN)C(=O)O [AEEEIYGEFEAKKKK, Ala-Glu-Glu-Glu-Ile-Tyr-Gly-Glu-Phe-Glu-Ala-Lys-Lys-Lys-Lys]

Km (cyclin A/p33^CDK2): 15 µM
Compound: ARRPMSPKKKA [ARRPMSPKKKA, Ala-Arg-Arg-Pro-Met-Ser-Pro-Lys-Lys-Lys-Ala]

Compound: Optimal peptide substrate based on fragment of Walsh inhibitor: known PKA peptide substrate, sequence G R T G R R N S I, from the literature (GRTGRRNSI)
fold lower KM than Kemptide (PKA): 40 fold
